Results reported in PubChem BioAssay AID624395 (The Scripps Research Institute Molecular Screening Center, 2012).
Active and inactive are the calls of the source. How the calls were made is not given here.

Test system: cell-based VP16 transactivation luciferase luminescence
Assay: VP16 transactivation luciferase reporter inhibitors, dose response, counter-screen for NR2E3 agonist project, cell-based, luminescence (AID 624395)

Row | SMILES | IC50
1 | CC(C)c1ccc(C(c2c(O)c3ccccc3oc2=O)c2c(O)c3ccccc3oc2=O)cc1 | 10.3 µM (inactive)
2 | O=c1c(Br)ccc(Br)cc1Br | 4.8 µM
3 | N#Cc1c(-c2ccccc2)cc(-c2ccccc2)nc1SCCC(=O)O | 31.5 µM (inactive)
4 | O=C1N/C(=C\c2ccc(O)cc2)C(O)=C1C=NCc1ccccc1 | > 39.8 µM (inactive)
5 | Cc1ccc([C@@H]2CC=C(C(=O)O)[C@H](c3ccc(C(C)(C)C)cc3)N2S(=O)(=O)c2ccc(C)cc2)cc1 | 7.47 µM
6 | O=S(=O)(/C(=C\c1ccc(C(F)(F)F)cc1)c1nc2ccccc2[nH]1)c1ccccc1 | 10.8 µM (inactive)
7 | COCCCNC(=S)N1CCN(c2nc(-c3ccc(Cl)cc3)cs2)CC1 | 10.6 µM (inactive)
8 | Cc1cc(C)cc(NC(=O)CCc2nc3sc4c(c3c(=O)[nH]2)CCCC4)c1 | > 39.8 µM (inactive)
9 | Cc1cnc(NC(=O)C2CC(=O)N(c3ccc4c(c3)OCCO4)C2)s1 (centres undefined) | > 39.8 µM (inactive)
10 | Cc1cnc(NC(=O)Cc2ccc(Br)cc2)s1 | > 39.9 µM (inactive)
11 | O=c1cc(C(F)(F)F)nc(SC/C=C/c2ccccc2)[nH]1 | 13 µM (inactive)
12 | CCC1(C)Cc2c(sc3[nH]c(=S)n(Cc4ccccc4)c(=O)c23)CO1 (centres undefined) | 12.1 µM (inactive)
13 | Cc1cc(C(=O)CSc2nnc3ccccn23)c(C)n1-c1ccccc1 | 25.7 µM (inactive)
14 | COC(CNC(=O)CSCc1nc(-c2ccc(SC)cc2)oc1C)OC | 2.61 µM
15 | Cc1ccc(Cc2cnc(N3C(=N)SC(C)C3=O)s2)cc1 (centres undefined) | 4.37 µM
16 | Cc1cccc(C(=O)N[C@H](C(=O)Nc2ncc(C)s2)C(C)C)c1 | 12.1 µM (inactive)
17 | N#C/C(=C\c1ccc(Sc2nc3ccccc3[nH]2)o1)c1ccccc1 | 4.65 µM
18 | CC(C)c1ccc(-c2csc(NC(=O)c3cccs3)c2C(=O)O)cc1 | 12.1 µM (inactive)
19 | COc1cc2c(OC(C)=O)c3c(c(-c4ccc5c(c4)OCO5)c2cc1OC)C(=O)OC3 | 3.48 µM
20 | CCC1(OC(=O)CN)C(=O)OCc2c1cc1n(c2=O)Cc2cc3ccccc3nc2-1 (centres undefined) | 1.31 µM
21 | O=C1c2ccccc2C(=O)c2[nH]c(=O)[nH]c21 | 4.74 µM
22 | COc1cccc(NC(=O)CSc2nc3ncc(Br)cc3[nH]2)c1 | > 39.8 µM (inactive)
23 | CCC(=O)N1CCCc2cc(S(=O)(=O)N3CCN(c4ccccn4)CC3)ccc21 | 22.5 µM (inactive)
24 | O=C(C1CC1)N1CCc2cc(Br)cc(S(=O)(=O)N3CCN(c4ccccn4)CC3)c21 | > 39.8 µM (inactive)
25 | O=C(OC(c1ccccc1)c1nccc2ccccc12)c1ccccc1 (centres undefined) | 0.242 µM
26 | O=S(=O)(NC1CCCC1)c1ccc(S(=O)(=O)N2CCc3ccccc32)cc1 | 4.59 µM

Row | SMILES | IC50
27 | CCCc1cc(=O)n2nc(N3CCC(C(=O)N4CCN(c5ccc(OC)cc5)CC4)CC3)sc2n1 | 4.44 µM
28 | Cc1ccc(S(=O)(=O)c2ccc([N+](=O)[O-])o2)cc1 | 6.32 µM
29 | Cc1ccnc(NC(=O)CCCOc2cc(=O)n(C)c3ccccc23)c1 | 8.23 µM
30 | CCOC(=O)N1CCN(C(=O)c2ccc(S(=O)(=O)Nc3ccc(C)cc3)cc2)CC1 | 8.62 µM
31 | CCCCOc1ccc(CONS(=O)(=O)c2ccc(NC(C)=O)cc2)cc1Cl | 4.03 µM
32 | C=CCn1c(C)cc(C(=O)COc2ccc(C)nc2[N+](=O)[O-])c1C | 0.946 µM
33 | CC(=O)Nc1ccc(Sc2ccc([N+](=O)[O-])o2)cc1 | 18.3 µM (inactive)
34 | O=[N+]([O-])c1cc(CN2CCN(c3ccccc3)CC2)c(O)c2ncccc12 | > 39.8 µM (inactive)
35 | Cc1cccc(C)c1OCc1cc(C(=O)N2CCC(c3ccncc3)CC2)no1 | 2.08 µM
36 | COc1cc2c(O)c3c(c(-c4ccc5c(c4)OCO5)c2cc1OC)C(=O)OC3 | 2.3 µM
37 | COCc1nnc(NC(=O)c2ccc(S(=O)(=O)N(CC(C)C)CC(C)C)cc2)o1 | 6.62 µM
38 | CSC(=Nc1ccccc1)N=C(SCc1ccccc1)N(C)C | 4.06 µM
39 | C=C1C(=O)O[C@@H]2C[C@@H](C)[C@@H]3C=CC(=O)[C@@]3(C)[C@@H](O)[C@H]12 | 4.37 µM
40 | CCCCC[C@@H]1C=C(C(=O)O)[C@H](c2ccc(Cl)c(Cl)c2)N1S(=O)(=O)c1ccc(C)cc1 | 8.77 µM
41 | COc1ccc(CNC(=O)c2cccc3c(-c4ccc(F)c(F)c4)coc23)cc1OC | 4.54 µM
42 | O=C1/C(=C\c2ccc([N+](=O)[O-])cc2)CS(=O)(=O)C/C1=C/c1ccc([N+](=O)[O-])cc1 | 4.12 µM
43 | CC(C)(C)Nc1nc(-c2ccccn2)nc2ccccc12 | 4.08 µM
44 | CCOC(=O)[C@]12Cc3cc(C)ccc3[C@H]1N(C1CCCCC1)C(=O)c1cc(OC)ccc12 | 4.32 µM
45 | COc1cc2nc(CN3CC=C(c4ccccc4)CC3)[nH]c(=O)c2cc1OC | 1.91 µM
46 | CCC(C)Nc1nc(-c2ccccn2)nc2ccccc12 (centres undefined) | 3.93 µM
47 | CC(C)N1CCc2c(sc(NC(=O)c3ccc([N+](=O)[O-])o3)c2C(N)=O)C1 | 3.05 µM
48 | Cc1cc(C(=O)CSc2nc3ccccc3[nH]2)c(C)n1CC1CCCO1 (centres undefined) | 7.32 µM
49 | FC(F)Sc1ccc(NC(=S)N2CCN(c3ccccn3)CC2)cc1 | 4.15 µM
50 | CCOC(=O)Cc1nnc2c(Nc3ccccc3F)nc3nonc3n12 | 4.03 µM
51 | Cc1ccc(OCCOC(=O)c2cc(S(=O)(=O)N3CCCCC3)ccc2N2CCOCC2)cc1 | 8.95 µM
52 | COc1cccc(C(=O)c2sc(NC(C)C)nc2N)c1 | 5.16 µM

Row | SMILES | IC50
53 | Nc1nc(-c2ccccn2)nc(N)c1Cc1ccc(Cl)cc1Cl | 4.59 µM
54 | CC(=O)NC(c1cccs1)c1cc([N+](=O)[O-])c2cccnc2c1O (centres undefined) | 5.77 µM
55 | CC(=O)N1c2ccc(S(=O)(=O)N3CCC(C(=O)Nc4cccc(Cl)c4)CC3)cc2CC1C (centres undefined) | 6.45 µM
56 | Cc1ccnc(NC(=O)Cc2ccc(-c3ccccc3)cc2)c1 | > 39.8 µM (inactive)
57 | COc1ccc(C)cc1NC(=O)c1nnn(Cc2cccc(C(F)(F)F)c2)c1N | > 39.8 µM (inactive)
58 | Cc1cnc(NC(=O)CN2CCN(c3ccccn3)CC2)s1 | 9.56 µM
59 | O=C(NC(=O)N1CCN(c2cccc(Cl)c2)CC1)c1ccc(Cl)cc1 | 4.17 µM
60 | COc1cc(OC)nc(-n2ncc(Br)c(Br)c2=O)n1 | 4.91 µM
61 | CCC1(O)C(=O)OCc2c1cc1n(c2=O)Cc2cc3cc(O)ccc3nc2-1 (centres undefined) | 3.4 µM
62 | Cc1c(C(=O)Nc2ccc(Oc3ccccc3)cc2)sc2nc3n(c(=O)c12)CCC3 | 5.11 µM
63 | Cc1ccc(S(=O)(=O)N2[C@@H](c3ccc(Cl)c(Cl)c3)C(C(=O)O)=C[C@H]2CC2CCCC2)cc1 | 12 µM (inactive)
64 | CN1CCN(C(=O)c2cccc(-c3cnc4cnc(-c5ccccc5Oc5ccccc5)cn34)c2)CC1 | 12.7 µM (inactive)
65 | NC1=C(Br)C(=O)c2ncccc2C1=O | 2.51 µM
66 | COc1ccc(C[C@@H]2OC3(C=CC(=O)C=C3)O[C@H]2Cc2ccc(OC)cc2)cc1 | 0.845 µM
67 | COc1ccc(OC)c(NC(=O)CSc2nnnn2-c2ccc3c(c2)OCO3)c1 | 3.36 µM
68 | Cc1ccc(C#N)c(SCc2nnc(-c3ccc(Cl)cc3)o2)n1 | 0.0132 µM
69 | C#Cc1cccc(Nc2nc(NCc3ccccc3)nc3ccsc23)c1 | 12.8 µM (inactive)
70 | C=C(C(=O)c1ccccc1)C(NC(C)(C)C)c1ccccc1 (centres undefined) | 5.27 µM
71 | C=CC[n+]1c(-c2ccc(Cl)cc2Cl)csc1Nc1ccc(NC(C)=O)cc1 | 2.75 µM
72 | CCc1cc(OCCCSc2nc(C)cc(=O)[nH]2)ccc1Cl | 7.05 µM
73 | Oc1[nH]c2ccccc2c1N=NC(=S)N1CCOCC1 | > 39.9 µM (inactive)
74 | Cc1cccc(OCCCC(=O)Nc2nc3ccccc3[nH]2)c1 | > 39.8 µM (inactive)
75 | COc1ccc(C)cc1NC(=O)NC1CC(=O)N(c2ccc3c(c2)OCCO3)C1 (centres undefined) | 20.3 µM (inactive)
76 | COc1ccc(NC2c3ccccc3C(=O)N2Cc2ccccc2Cl)cc1OC (centres undefined) | > 39.8 µM (inactive)
77 | CC(C)(C)c1ccc(CSc2nc(N)cc(=O)[nH]2)cc1 | 4.53 µM
78 | COc1ccccc1C(=O)Nc1nc2ccccc2[nH]1 | 5.03 µM

Row | SMILES | IC50
79 | CCC1(O)C(=O)OCc2c1cc1n(c2=O)Cc2cc3c(N)cccc3nc2-1 (centres undefined) | 2.33 µM
80 | O=NN(CC(=O)NNc1ccccc1)CC(=O)NNc1ccccc1 | 23.2 µM (inactive)
81 | O=C(O)c1ccc(S(=O)(=O)/N=C2\C=C(Nc3ccccc3F)C(=O)c3ccccc32)cc1 | 4.45 µM
82 | O=C1C=CC2(O[C@H](c3ccccc3)[C@@H](c3ccccc3)O2)[C@H](Sc2ccccc2O)C1 | 4.89 µM
83 | O=C(CSc1nnnn1-c1ccc2c(c1)OCCO2)Nc1nc2c(s1)CCCC2 | > 39.8 µM (inactive)
84 | O=C(COc1cccc2ccccc12)Nc1ccc(Cl)cc1C(=O)O | 4.04 µM
85 | CC(C)c1cc2c(c(O)c1O)[C@@]13CCCC(C)(C)C1CC2OC3=O (some centres undefined) | > 39.9 µM (inactive)
86 | Cc1cc(C(=O)Nc2ccc(Cl)cc2)c(C)n1-c1ccccc1 | 0.00684 µM
87 | O=C(c1cc(S(=O)(=O)N2CCN(c3ccccc3)CC2)ccc1Cl)N1CCCCCCC1 | 2.51 µM
88 | Cc1onc(-c2ccccc2Cl)c1C(=O)Nc1nc2c(s1)CCCC2 | > 39.8 µM (inactive)
89 | COc1ccccc1-n1c(=O)oc2ccc(Cl)cc2c1=O | 7.67 µM
90 | Cc1sc(NC(=O)/C=C/c2ccc3c(c2)OCO3)nc1-c1ccccc1 | 7.11 µM
91 | COc1ccc(NC(=O)/C(Cl)=C(/Cl)S(=O)Cc2ccccc2)cn1 (centres undefined) | 2.1 µM
92 | Brc1ccc(N/N=C(/N=Nc2nn[nH]n2)c2ccccc2)cc1 | 12.8 µM (inactive)
93 | Cc1ccc(S(=O)(=O)N2[C@@H](c3ccc(Cl)cc3)C(C(=O)O)=CC[C@H]2c2ccc(C(C)C)cc2)cc1 | 7.56 µM
94 | COc1ccc(NC(=O)/C(Cl)=C(/Cl)S(=O)(=O)Cc2ccccc2)cn1 | 5.13 µM
95 | O=[N+]([O-])c1ccc(NC(=S)NCCc2ccc(F)cc2)cc1 | 5.02 µM
96 | COc1ccc(NC(=O)c2sc(=O)n(Cc3ccc(F)c(Cl)c3)c2C)cc1OC | 20.6 µM (inactive)
97 | O=C(OCCOc1ccc(Cl)cc1)c1cc(S(=O)(=O)N2CCCCC2)ccc1N1CCOCC1 | 8.66 µM
98 | CCC(Sc1nc(C)cc(=O)[nH]1)C(=O)Nc1sc2c(c1C#N)CCCC2 (centres undefined) | 5.06 µM
99 | Nc1nc(-c2ccccn2)nc(N)c1Cc1c(F)cccc1Cl | 2.69 µM
100 | C=C1C(=O)OC2CC(C)C3C=CC(=O)C3(C)C(O)C12 (centres undefined) | 10.5 µM (inactive)
101 | CC(=O)c1c(C)[nH]c(C(=O)OCC(=O)c2ccc(Br)cc2)c1C | 3.45 µM
102 | Oc1[nH]c2ccc(Br)cc2c1N=NC(=S)N1CCOCC1 | > 13.3 µM (inactive)
103 | Cc1cc(NC(=O)CSc2nc3c(sc4ccccc43)c(=O)n2CCCN2CCOCC2)n[nH]1 | > 39.8 µM (inactive)
104 | COc1ccc2c(c1)/C(=C/c1cnc[nH]1)C(=O)N2 | 12.7 µM (inactive)
